Data: US20220370468A1, “Methods of treating sleep disorders associated with pain” (Astellas Pharma Global Development, Inc., priority 2019, published 2022)

Key:
[1] = test system: patients with fibromyalgia; test: Phase 2a study: daily fibromyalgia sleep diary (FMSD); type: in vivo, human; conditions: for Degree of being rested when waking up for the day, change from baseline, LS Mean (SE) / Degree of deep sleep, change from baseline, LS Mean (SE) / Degree of having enough sleep during the previous night, change from baseline, LS Mean (SE) / Difficulty getting comfortable, change from baseline, LS Mean (SE) / Difficulty staying asleep, change from baseline, LS Mean (SE) / Difficulty with beginning the day, change from baseline, LS Mean (SE) / Difficulty with falling asleep, change from baseline, LS Mean (SE) / Restlessness of sleep, change from baseline, LS Mean (SE): FAS, 15 mg
Text: In some embodiments, the clinical score is a score for one or more FMSD (fibromyalgia sleep diary) items. The FMSD (Kleinman et al., 2014) is a validated 8-item patient-reported outcome that assesses sleep disturbances specific to patients with fibromyalgia across the domains of falling asleep, staying asleep, and sufficient sleep (Kleinman et al., 2014). Each day upon waking, patients rated their sleep quality over the previous night on an 11-point numerical integer rating scale (NRS). Each item is rated on an 11-point NRS, ranging from 0, which corresponds to “not at all”, to 10, which corresponds to “extremely.” FMSD items include: • difficulty with falling asleep (improvement shown as a decrease in measurement); • restlessness of sleep (improvement shown as a decrease in measurement); • difficulty getting comfortable (improvement shown as a decrease in measurement); • difficulty staying asleep (improvement shown as a decrease in measurement); • degree of deep sleep (improvement shown as an increase in measurement); • degree of being rested when waking up for the day (improvement shown as an increase in measurement); • difficulty with beginning the day (improvement shown as a decrease in measurement); and • degree of having enough sleep during the previous night (improvement shown as an increase in measurement). A phase 2a, randomized, double-blind, placebo-controlled, parallel group study was conducted at 24 sites in the United States to assess the analgesic efficacy and safety of the compound of Formula (I) in patients with fibromyalgia. The study consisted of the following: a screening period of up to 42 days, which included a washout period and a 7-day baseline diary run-in; a 57-day double-blind randomized treatment period with site visits at Days 1, 15, 29, and 57; and a 4-week follow-up period consisting of a clinic visit after 2 weeks and a phone call after 4 weeks. The study was carried out in accordance with the Declaration of Helsinki and approved by the relevant Institutional Review Boards. All participants provided written informed consent prior to the initiation of any study procedures. Male and female patients aged 18 to 80 years were included in the trial if they met the American College of Rheumatology (ACR) 1990 and 2010 fibromyalgia diagnostic criteria at screening (Wolfe et al., 1990; Wolfe et al., 2010b). The core diagnostic criteria for fibromyalgia are defined by the 1990 criteria (Wolfe et al., 1990), and while ACR has published newer criteria, the 1990 version is still commonly utilized in clinical trials. To meet ACR 1990 criteria, patients must have had widespread pain for at least 3 months, defined as the presence of pain on the right and left sides of the body, pain above and below the waist, and pain in the axial skeleton (cervical spine, anterior chest, thoracic spine, or low back) (Wolfe et al., 1990). They must also have had pain in at least 11 of 18 tender point sites on digital palpation performed with an approximate force of 4 kg. To meet the ACR 2010 criteria, patients needed to have a widespread pain index (WPI) score of ≥7 and a symptom severity (SS) scale score ≥5, or a WPI score 3-6 and an SS scale score ≥9 (Wolfe et al., 2010b). Symptoms must have been present at a similar level for at least 3 months and patients must have been free of any other disorder that could have explained the pain. […] Eligible patients were randomized 1:1 using Interactive Response Technology to receive oral Compound of Formula (I) 15 mg (three capsules of 5 mg) or matching placebo capsules, each given once daily in the morning, with or without food, for 8 weeks. Sleep disturbance was assessed as an exploratory endpoint using change from baseline to each respective week (Weeks 1-8) and from baseline to EOT in daily fibromyalgia sleep diary (FMSD) responses (Kleinman et al., 2014). […]

[2] = Nonclinical studies: toxicological profile

SMILES: Cc1sc2cc(Cl)ccc2c1-c1ccc(N2CCO[C@H](CNC3CCC3)C2)c(C(=O)O)c1 [Compound of Formula (I)]
- Difficulty with falling asleep, Treatment Difference (SE) (Compound of Formula (I) - placebo) ([1]; EOT (LOCF), ANCOVA, 1-sided p 0.008): −0.61 (0.25)
- Restlessness of sleep, Treatment Difference (SE) (Compound of Formula (I) - placebo) ([1]; EOT (LOCF), ANCOVA, 1-sided p 0.009): −0.56 (0.23)
- Difficulty with beginning the day, Treatment Difference (SE) (Compound of Formula (I) - placebo) ([1]; EOT (LOCF), ANCOVA, 1-sided p 0.044): −0.42 (0.25)
- Difficulty getting comfortable, Treatment Difference (SE) (Compound of Formula (I) - placebo) ([1]; EOT (LOCF), ANCOVA, 1-sided p 0.054): −0.35 (0.22)
- Degree of having enough sleep during the previous night, Treatment Difference (SE) (Compound of Formula (I) - placebo) ([1]; EOT (LOCF), ANCOVA, 1-sided p 0.100): 0.32 (0.25)
- Difficulty staying asleep, Treatment Difference (SE) (Compound of Formula (I) - placebo) ([1]; EOT (LOCF), ANCOVA, 1-sided p 0.158): −0.22 (0.22)
- Degree of deep sleep, Treatment Difference (SE) (Compound of Formula (I) - placebo) ([1]; EOT (LOCF), ANCOVA, 1-sided p 0.240): 0.16 (0.22)
- Degree of being rested when waking up for the day, Treatment Difference (SE) (Compound of Formula (I) - placebo) ([1]; EOT (LOCF), ANCOVA, 1-sided p 0.337): 0.10 (0.24)
- Degree of being rested when waking up for the day, change from baseline, LS Mean (SE) ([1]; EOT (LOCF), ANCOVA): 0.78 (0.17)
- Degree of deep sleep, change from baseline, LS Mean (SE) ([1]; EOT (LOCF), ANCOVA): 0.60 (0.16)
- Degree of having enough sleep during the previous night, change from baseline, LS Mean (SE) ([1]; EOT (LOCF), ANCOVA): 1.09 (0.18)
- Difficulty getting comfortable, change from baseline, LS Mean (SE) ([1]; EOT (LOCF), ANCOVA): −1.27 (0.16)
- Difficulty staying asleep, change from baseline, LS Mean (SE) ([1]; EOT (LOCF), ANCOVA): −1.08 (0.16)
- Difficulty with beginning the day, change from baseline, LS Mean (SE) ([1]; EOT (LOCF), ANCOVA): −0.91 (0.18)
- Difficulty with falling asleep, change from baseline, LS Mean (SE) ([1]; EOT (LOCF), ANCOVA): −1.41 (0.18)
- Restlessness of sleep, change from baseline, LS Mean (SE) ([1]; EOT (LOCF), ANCOVA): −1.50 (0.17)
- Difficulty with falling asleep, Treatment Difference (SE) (Compound of Formula (I) - placebo) ([1]; Week 8, MMRM, 1-sided p 0.018): −0.56 (0.26)
- Restlessness of sleep, Treatment Difference (SE) (Compound of Formula (I) - placebo) ([1]; Week 8, MMRM, 1-sided p 0.033): −0.48 (0.26)
- Difficulty with beginning the day, Treatment Difference (SE) (Compound of Formula (I) - placebo) ([1]; Week 8, MMRM, 1-sided p 0.070): −0.39 (0.26)
- Degree of having enough sleep during the previous night, Treatment Difference (SE) (Compound of Formula (I) - placebo) ([1]; Week 8, MMRM, 1-sided p 0.131): 0.30 (0.27)
- Difficulty getting comfortable, Treatment Difference (SE) (Compound of Formula (I) - placebo) ([1]; Week 8, MMRM, 1-sided p 0.167): −0.23 (0.23)
- Difficulty staying asleep, Treatment Difference (SE) (Compound of Formula (I) - placebo) ([1]; Week 8, MMRM, 1-sided p 0.275): −0.14 (0.24)
- Degree of deep sleep, Treatment Difference (SE) (Compound of Formula (I) - placebo) ([1]; Week 8, MMRM, 1-sided p 0.331): 0.11 (0.24)
- Degree of being rested when waking up for the day, Treatment Difference (SE) (Compound of Formula (I) - placebo) ([1]; Week 8, MMRM, 1-sided p 0.432): 0.04 (0.25)
- Degree of being rested when waking up for the day, change from baseline, LS Mean (SE) ([1]; Week 8, MMRM): 0.74 (0.18)
- Degree of deep sleep, change from baseline, LS Mean (SE) ([1]; Week 8, MMRM): 0.55 (0.17)
- Degree of having enough sleep during the previous night, change from baseline, LS Mean (SE) ([1]; Week 8, MMRM): 1.10 (0.19)
- Difficulty getting comfortable, change from baseline, LS Mean (SE) ([1]; Week 8, MMRM): −1.24 (0.17)
- Difficulty staying asleep, change from baseline, LS Mean (SE) ([1]; Week 8, MMRM): −1.09 (0.17)
- Difficulty with beginning the day, change from baseline, LS Mean (SE) ([1]; Week 8, MMRM): −0.89 (0.19)
- Difficulty with falling asleep, change from baseline, LS Mean (SE) ([1]; Week 8, MMRM): −1.46 (0.19)
- Restlessness of sleep, change from baseline, LS Mean (SE) ([1]; Week 8, MMRM): −1.53 (0.19)
- FMSD difficulty with falling asleep versus placebo ([1]; beginning at Week 2, P=0.032): Statistically significant improvements
- FMSD difficulty getting comfortable versus placebo ([1]; beginning at Week 3, P=0.007): Statistically significant improvements
- FMSD difficulty staying asleep versus placebo ([1]; beginning at Week 3, P=0.013): Statistically significant improvements
- FMSD restlessness of sleep versus placebo ([1]; beginning at Week 3, P=0.013): Statistically significant improvements
- FMSD degree of deep sleep versus placebo ([1]; beginning at Week 6, P=0.035): Statistically significant improvements
- FMSD difficulty with beginning the day versus placebo ([1]; beginning at Week 6, P=0.040): Statistically significant improvements
- toxicological profile [2]: acceptable toxicological profile
